Measured values reported in patent US20230279002A1, “Polymorphs of Crystalline Forms of 3,10-dimethoxy-5,8,13,13a-tetrahydro-6H-isoquinolino[3,2-a]isoquinolin-9-yl 3-fluorobenzenesulfonate and Salts Thereof” (CVI Pharmaceuticals Limited, priority 2020, published 2023).
Read-outs that look alike come from different tables or passages of the source.

How the values were obtained:
Assay type in all cases: physicochemical
[1] = DVS (Dynamic Vapor Sorption) moisture sorption/desorption, hygroscopicity classification
How it was run: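 Moisture sorption/desorption profiled by DVS on about 10–20 mg sample, isothermal at 25° C, cycling 0%→95%→0% RH in 5% RH steps. Equilibrium per step taken at dm/dt ≤ 0.01%/min. Hygroscopicity class assigned from %-moisture gain versus rising RH.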

[2] = Solubility in SGF, FaSSIF, FeSSIF, 0.1M HCl, pH 4.5 and pH 6.8 aqueous at 25° C. (HPLC); settings: for solubility: 25 °C, thermodynamic from solid, read-out: Solubility conc.(mg/ml); for Final pH: solubility test
Experimental: Solubility: Excess drug substance was equilibrated with SGF (Simulated Gastric Fluid), FaSSIF (Simulated Small Intestinal Fluid under Fasted state), FeSSIF (Simulated Small Intestinal Fluid under Fed state), 0.1M HCl, pH 4.5 aqueous, and pH 6.8 aqueous at 25° C. After stirring for 20˜24 h, each sample was filtered, diluted appropriately and analyzed by HPLC. The experiment was terminated once a solubility target of 5 mg/mL was reached.

[3] = Solid stability at 40° C./0% RH (closed) and 40° C./75% RH (open), HPLC; settings: for 0 day % remaining / 7 day % remaining / 21 day % remaining: solid
How it was run: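 Solid compound (5 mg) stored in the dark at 40 °C/0% RH in closed vials and at 40 °C/75% RH open. Samples analysed by HPLC at day 0, 5 and 10, or at days 0, 7 and 21, depending on the study.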

[4] = Solution stability in 0.1 N HCl, pH 4.5 buffer and pH 6.8 buffer at 25° C. and 37° C., HPLC; settings: for Remaining %: 50 μg/mL, 40% MeOH; for Solution stability: 0.1 N HCl, pH 4.5 buffer and pH 6.8 buffer
How it was run: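 Methanol stock (1.0 mg/mL) diluted with each medium to ionic strength 0.15 M, final 50 μg/mL in 40% MeOH; acetate used for pH 4.5. For 1b and 3b at pH 6.8, final 25 μg/mL in 40% DMSO. Solutions stored at 25° C. and 37° C.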

[5] = TGA (Thermal Gravimetric Analysis) weight loss; settings: DSC and TGA
Experimental: TGA (Thermal Gravimetric Analysis): Samples of compounds (4˜6 mg) were weighed into the pan, and heated under nitrogen purge using a ramp rate of 20° C./min over the range of 30° C.˜350° C.

SMILES: COc1ccc2c(c1)CCN1Cc3c(ccc(OC)c3OS(=O)(=O)c3cccc(F)c3)C[C@@H]21 [Compound 2b]
- Hygroscopicity classification by DVS ([1]; 25 °C): not hygroscopic
- Change In Mass (%) - ref, Desorption ([1]; Cycle 1, target RH 0.0%): −0.0081%
- Change In Mass (%) - ref, Sorption ([1]; Cycle 1, target RH 0.0%): 0.0011%
- Change In Mass (%) - ref, Desorption ([1]; Cycle 1, target RH 5.0%): −0.0035%
- Change In Mass (%) - ref, Hysteresis ([1]; Cycle 1, target RH 5.0%): −0.0042%
- Change In Mass (%) - ref, Sorption ([1]; Cycle 1, target RH 5.0%): 0.0007%
- Change In Mass (%) - ref, Desorption ([1]; Cycle 1, target RH 10.0%): 0.0000%
- Change In Mass (%) - ref, Hysteresis ([1]; Cycle 1, target RH 10.0%): −0.0032%
- Change In Mass (%) - ref, Sorption ([1]; Cycle 1, target RH 10.0%): 0.0032%
- Change In Mass (%) - ref, Desorption ([1]; Cycle 1, target RH 15.0%): 0.0011%
- Change In Mass (%) - ref, Hysteresis ([1]; Cycle 1, target RH 15.0%): −0.0033%
- Change In Mass (%) - ref, Sorption ([1]; Cycle 1, target RH 15.0%): 0.0044%
- Change In Mass (%) - ref, Desorption ([1]; Cycle 1, target RH 20.0%): 0.0044%
- Change In Mass (%) - ref, Hysteresis ([1]; Cycle 1, target RH 20.0%): −0.0037%
- Change In Mass (%) - ref, Sorption ([1]; Cycle 1, target RH 20.0%): 0.0081%
- Change In Mass (%) - ref, Desorption ([1]; Cycle 1, target RH 25.0%): 0.0062%
- Change In Mass (%) - ref, Hysteresis ([1]; Cycle 1, target RH 25.0%): −0.0037%
- Change In Mass (%) - ref, Sorption ([1]; Cycle 1, target RH 25.0%): 0.0099%
- Change In Mass (%) - ref, Desorption ([1]; Cycle 1, target RH 30.0%): 0.0081%
- Change In Mass (%) - ref, Hysteresis ([1]; Cycle 1, target RH 30.0%): −0.0037%
- Change In Mass (%) - ref, Sorption ([1]; Cycle 1, target RH 30.0%): 0.0118%
- Change In Mass (%) - ref, Desorption ([1]; Cycle 1, target RH 35.0%): 0.0100%
- Change In Mass (%) - ref, Hysteresis ([1]; Cycle 1, target RH 35.0%): −0.0033%
- Change In Mass (%) - ref, Sorption ([1]; Cycle 1, target RH 35.0%): 0.0134%
- Change In Mass (%) - ref, Desorption ([1]; Cycle 1, target RH 40.0%): 0.0123%
- Change In Mass (%) - ref, Hysteresis ([1]; Cycle 1, target RH 40.0%): −0.0026%
- Change In Mass (%) - ref, Sorption ([1]; Cycle 1, target RH 40.0%): 0.0150%
- Change In Mass (%) - ref, Desorption ([1]; Cycle 1, target RH 45.0%): 0.0185%
- Change In Mass (%) - ref, Hysteresis ([1]; Cycle 1, target RH 45.0%): 0.0012%
- Change In Mass (%) - ref, Sorption ([1]; Cycle 1, target RH 45.0%): 0.0173%
- Change In Mass (%) - ref, Desorption ([1]; Cycle 1, target RH 50.0%): 0.0204%
- Change In Mass (%) - ref, Hysteresis ([1]; Cycle 1, target RH 50.0%): 0.0035%
- Change In Mass (%) - ref, Sorption ([1]; Cycle 1, target RH 50.0%): 0.0169%
- Change In Mass (%) - ref, Desorption ([1]; Cycle 1, target RH 55.0%): 0.0243%
- Change In Mass (%) - ref, Hysteresis ([1]; Cycle 1, target RH 55.0%): 0.0056%
- Change In Mass (%) - ref, Sorption ([1]; Cycle 1, target RH 55.0%): 0.0187%
- Change In Mass (%) - ref, Desorption ([1]; Cycle 1, target RH 60.0%): 0.0264%
- Change In Mass (%) - ref, Hysteresis ([1]; Cycle 1, target RH 60.0%): 0.0063%
- Change In Mass (%) - ref, Sorption ([1]; Cycle 1, target RH 60.0%): 0.0201%
- Change In Mass (%) - ref, Desorption ([1]; Cycle 1, target RH 65.0%): 0.0294%
- Change In Mass (%) - ref, Hysteresis ([1]; Cycle 1, target RH 65.0%): 0.0083%
- Change In Mass (%) - ref, Sorption ([1]; Cycle 1, target RH 65.0%): 0.0211%
- Change In Mass (%) - ref, Desorption ([1]; Cycle 1, target RH 70.0%): 0.0344%
- Change In Mass (%) - ref, Hysteresis ([1]; Cycle 1, target RH 70.0%): 0.0074%
- Change In Mass (%) - ref, Sorption ([1]; Cycle 1, target RH 70.0%): 0.0270%
- Change In Mass (%) - ref, Desorption ([1]; Cycle 1, target RH 75.0%): 0.0382%
- Change In Mass (%) - ref, Hysteresis ([1]; Cycle 1, target RH 75.0%): 0.0030%
- Change In Mass (%) - ref, Sorption ([1]; Cycle 1, target RH 75.0%): 0.0352%
- Change In Mass (%) - ref, Desorption ([1]; Cycle 1, target RH 80.0%): 0.0446%
- Change In Mass (%) - ref, Hysteresis ([1]; Cycle 1, target RH 80.0%): 0.0037%
- Change In Mass (%) - ref, Sorption ([1]; Cycle 1, target RH 80.0%): 0.0409%
- Change In Mass (%) - ref, Desorption ([1]; Cycle 1, target RH 85.0%): 0.0530%
- Change In Mass (%) - ref, Hysteresis ([1]; Cycle 1, target RH 85.0%): 0.0030%
- Change In Mass (%) - ref, Sorption ([1]; Cycle 1, target RH 85.0%): 0.0500%
- Change In Mass (%) - ref, Desorption ([1]; Cycle 1, target RH 90.0%): 0.0689%
- Change In Mass (%) - ref, Hysteresis ([1]; Cycle 1, target RH 90.0%): 0.0051%
- Change In Mass (%) - ref, Sorption ([1]; Cycle 1, target RH 90.0%): 0.0638%
- Change In Mass (%) - ref, Desorption ([1]; Cycle 1, target RH 95.0%): 0.0941%
- Change In Mass (%) - ref, Sorption ([1]; Cycle 1, target RH 95.0%): 0.0941%
- moisture picked up (DVS) ([1]; at 95% RH, 25 °C): ~0.1%
- solubility ([2]; 0.1 N HCl, simulated gastric fluid, 0.1N HCL, solubility of salts transformed to freebase): 0.206 mg/mL
- solubility ([2]; FaSSIF (Simulated Small Intestinal Fluid, fasted state), fassif, FaSSIF, solubility of salts transformed to freebase): 0.01 mg/mL
- solubility ([2]; FeSSIF (Simulated Small Intestinal Fluid, fed state), fessif, FeSSIF, solubility of salts transformed to freebase): 0.011 mg/mL
- Solubility conc.(mg/ml) ([2]; SGF, solubility of salts transformed to freebase): 0.147 mg/mL
- solubility ([2]; pH 4.5 acetate buffer (USP), pH 4.5, aqueous buffer, pH 4.5 Acetate Buffer (USP), solubility of salts transformed to freebase): 0.01 mg/mL
- solubility ([2]; pH 6.8 phosphate buffer (USP), pH 6.8, aqueous buffer, pH 6.8 Phosphate Buffer (USP), solubility of salts transformed to freebase): 0.008 mg/mL
- Final pH ([2]; 0.1N HCL): 1.59
- Final pH ([2]; FaSSIF): 6.23
- Final pH ([2]; FeSSIF): 4.93
- Final pH ([2]; SGF): 1.59
- Final pH ([2]; Water): 2.74
- Final pH ([2]; pH 4.5 Acetate Buffer (USP)): 4.44
- Final pH ([2]; pH 6.8 Phosphate Buffer (USP)): 6.67
- solubility ([2]; water, water, Water, solubility of salts transformed to freebase): 0.096 mg/mL
- Solid-state stability (HPLC) ([3]; 40° C./0% RH (closed) and 40° C./75% RH (open), dark, up to 3 weeks): substantially stable
- 0 day % remaining ([3]; 40° C. (0% RH, closed)): 100.0%
- 7 day % remaining ([3]; 40° C. (0% RH, closed)): 100.4%
- 21 day % remaining ([3]; 40° C. (0% RH, closed)): 100.0%
- 0 day % remaining ([3]; 40° C./75% RH (open)): 100.0%
- 7 day % remaining ([3]; 40° C./75% RH (open)): 100.3%
- 21 day % remaining ([3]; 40° C./75% RH (open)): 100.1%
- Solution stability, overall comparison of 1b, 2b and 3b ([4]; 25° C. and 37° C.): best solution stability behaviors
- Remaining % ([4]; 25° C., 0.1N HCL, 0 h): 100.00%
- Remaining % ([4]; 25° C., 0.1N HCL, 3 h): 100.07%
- Remaining % ([4]; 25° C., 0.1N HCL, 24 h): 100.37%
- Solution stability ([4]; 25° C., 24 h): stable
- Remaining % ([4]; 25° C., pH 4.5, 0 h): 100.00%
- Remaining % ([4]; 25° C., pH 4.5, 3 h): 99.80%
- Remaining % ([4]; 25° C., pH 4.5, 24 h): 99.52%
- Remaining % ([4]; 25° C., pH 6.8, 0 h): 100.00%
- Remaining % ([4]; 25° C., pH 6.8, 3 h): 99.52%
- Remaining % ([4]; 25° C., pH 6.8, 24 h): 98.01%
- Remaining % ([4]; 37° C., 0.1N HCL, 0 h): 100.00%
- Remaining % ([4]; 37° C., 0.1N HCL, 3 h): 100.34%
- Remaining % ([4]; 37° C., 0.1N HCL, 24 h): 100.95%
- Solution stability ([4]; 37° C., 24 h): stable
- Remaining % ([4]; 37° C., pH 4.5, 0 h): 100.00%
- Remaining % ([4]; 37° C., pH 4.5, 3 h): 100.00%
- Remaining % ([4]; 37° C., pH 4.5, 24 h): 99.45%
- Remaining % ([4]; 37° C., pH 6.8, 0 h): 100.00%
- Remaining % ([4]; 37° C., pH 6.8, 3 h): 100.28%
- Remaining % ([4]; 37° C., pH 6.8, 24 h): 99.86%
- Temperature until which there is no weight loss [5]: about 200 °C
